# “And” between values parts separate entries of the source, which are not always exact repeats. Equal values may be shown once.
# Assays:
# XPB = molecular target: T1, XPB (Homo sapiens, UniProt P19447); test: Immunoblot of XPB level in THP-1 cells, 48 h; format: cell-based; conditions: 160 nM
# T1 construct: endogenous in cells; host or cells: THP-1
# Method: Well-grown leukemia cells were taken and seeded into wells of a 6-well cell culture plate, with a density of 1×10^6/ml. The medium was 1640 cell medium containing 10% fetal bovine serum. 14-D-Valine-TPL with different concentrations was added, and after being uniformly mixed, the plate was placed in a carbon dioxide (5% CO2) cell incubator, and incubated at 37° C. for 48 hours. Cellular proteins were then extracted, and the immunoblot technique was used to detect the expression levels of XPB and Pol II.
# Jurkat = test: MTT growth inhibition, Jurkat cells, 72 h; format: cell-based, human
# Method: (§1) 5000 well-grown leukemia cells or normal human blood cells were taken and seeded into wells of a 96-well cell culture plate. The medium was 1640 cell medium containing 10% fetal bovine serum. 14-D-Valine-TPL with different concentrations was added, and after being uniformly mixed, the plate was placed in a carbon dioxide (5% CO2) cell incubator, and incubated at 37° C. for 72 hours. The concentration of live cells was then determined using the MTT assay. In this experiment, the cell viability in the control group (without the compound treatment) was set to be 100%, and the cell viability (%) after the action of the compound the half maximal growth inhibitory concentration of leukemia cells at 72 hours (IC50 value at 72 hours) and the therapeutic window index were calculated. Therapeutic window index=IC50 value of normal blood cells/IC50 value of leukemia cells. […] A larger therapeutic window indicates a better selectivity of the compound for tumor cells.
# (§2) 5000 well-grown leukemia cells were taken and seeded into wells of a 96-well cell culture plate. The medium was 1640 cell medium containing 10% fetal bovine serum. 14-D-Valine-TPL with different concentrations was added, and after being uniformly mixed, the plate was placed in a carbon dioxide (5% CO2) cell incubator, and incubated at 37° C. for 72 hours. The concentration of live cells was then determined using the MTT assay. In this experiment, the cell viability in the control group (without the compound treatment) was set to be 100%, and the cell viability (%) after the action of the compound and the half maximal growth inhibitory concentration of leukemia cells at 72 hours (IC50 value at 72 hours) were calculated.
# as §2, with “well-grown lymphocytes” for “well-grown leukemia cells”
# CEM = test: MTT growth inhibition, CEM cells, 72 h; format: cell-based, human
# Method: as §1, §2
# as §2, with “well-grown lymphocytes” for “well-grown leukemia cells”
# [1] = test system: human acute myelogenous leukemia KG-1a cells; test: KG-1a subcutaneous xenograft in NOD/SCID mice; format: in vivo; conditions: for Tumor weight: KG-1a, individual mice, end of experiment
# Method: (§3) 7-week old female NOD/SCID mice were taken and inoculated subcutaneously with 1×10^7 cells (0.2 ml) per mouse in axilla, with human acute myelogenous leukemia KG-1a cells on the left and human acute monocytic leukemia THP-1 cells on the right. When tumors grew to a tumor size of around 0.5 cm, the mice were randomized into groups with 3 mice each. An equivalent amount of PBS was used for the control group, and the 14-D-Valine-TPL group was divided into two groups with 0.2 mg/kg body weight and 0.4 mg/kg body weight: intragastric administration 2 times a day (one at 8 a.m. and one at 4 p.m.) for consecutive 14 days of treatment. An observation was made for total 30 days, during which the conditions of the mice such as tumor size, weight, activity, diet, and the like were measured. At the end of the experiment, the mice were sacrificed, tumor tissues were taken and the tumors were weighed, and major organs and tissues of the mice such as liver, spleen, heart, lung, large intestine, small intestine, and the like were examined.
# as §3, with “the left.” for “the left and human acute monocytic leukemia THP-1 cells on the right.”, “around 50-100 mm^3,” for “around 0.5 cm,”, “the TPL-LLV” for “the 14-D-Valine-TPL”, “with 0.23” for “with 0.2”, “and 0.46” for “and 0.4”, “intragastric administration,” for “intragastric administration”
# as §3, with “the left.” for “the left and human acute monocytic leukemia THP-1 cells on the right.”, “around 50-100 mm^3,” for “around 0.5 cm,”, “the TPL-DLV” for “the 14-D-Valine-TPL”, “with 0.23” for “with 0.2”, “and 0.46” for “and 0.4”, “intragastric administration,” for “intragastric administration”
# as §3, with “the left.” for “the left and human acute monocytic leukemia THP-1 cells on the right.”, “around 50-100 mm^3,” for “around 0.5 cm,”, “the TPL-DLV” for “the 14-D-Valine-TPL”, “with 0.32” for “with 0.2”, “and 0.64” for “and 0.4”, “intragastric administration,” for “intragastric administration”
# THP-1 = test: MTT growth inhibition, THP-1 cells, 72 h; format: cell-based; conditions: Homo sapiens, THP-1, MTT
# Method: as §2
# KG-1 = test: MTT growth inhibition, KG-1 cells, 72 h; format: cell-based; conditions: Homo sapiens, KG-1, MTT
# Method: as §2
# KG-1a = test: MTT growth inhibition, KG-1a cells, 72 h; format: cell-based; conditions: Homo sapiens
# Method: as §2
# T1 sequence (P19447 whole entry): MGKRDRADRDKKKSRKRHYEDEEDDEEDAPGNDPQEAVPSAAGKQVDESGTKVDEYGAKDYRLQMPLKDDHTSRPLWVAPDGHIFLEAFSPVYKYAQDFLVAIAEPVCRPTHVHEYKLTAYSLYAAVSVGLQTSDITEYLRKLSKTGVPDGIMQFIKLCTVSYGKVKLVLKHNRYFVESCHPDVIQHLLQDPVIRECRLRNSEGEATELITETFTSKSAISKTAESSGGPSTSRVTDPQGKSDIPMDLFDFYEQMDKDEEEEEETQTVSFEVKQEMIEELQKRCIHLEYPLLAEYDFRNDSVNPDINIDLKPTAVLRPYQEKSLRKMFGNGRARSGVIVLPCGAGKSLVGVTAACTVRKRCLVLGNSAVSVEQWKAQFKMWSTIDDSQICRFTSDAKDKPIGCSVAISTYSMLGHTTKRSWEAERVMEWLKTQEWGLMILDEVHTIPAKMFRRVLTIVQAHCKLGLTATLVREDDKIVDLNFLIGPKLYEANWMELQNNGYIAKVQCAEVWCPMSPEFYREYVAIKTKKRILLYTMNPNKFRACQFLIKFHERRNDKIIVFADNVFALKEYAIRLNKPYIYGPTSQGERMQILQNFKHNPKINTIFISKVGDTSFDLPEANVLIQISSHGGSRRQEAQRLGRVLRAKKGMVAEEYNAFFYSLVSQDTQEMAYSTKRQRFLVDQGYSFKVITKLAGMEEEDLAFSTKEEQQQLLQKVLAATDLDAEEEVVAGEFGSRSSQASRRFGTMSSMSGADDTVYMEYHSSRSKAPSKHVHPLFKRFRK
compound,measurement,setting,value
"CC(C)[C@@H](N)C(=O)O[C@@H]1[C@@]2(C(C)C)O[C@H]2[C@@H]2O[C@]23[C@]12O[C@H]2C[C@H]1C2=C(CC[C@@]13C)C(=O)OC2 [14-D-Valine-TPL, 14-Dextro-Valine-Triptolide]",level of XPB (immunoblot),XPB,significantly inhibited
same,IC50,"Jurkat; Homo sapiens, Jurkat, 72 h",36.3 nM
same,Therapeutic window,Jurkat; IC50 of normal blood cells/IC50 of Jurkat,5.54
same,IC50,"CEM; Homo sapiens, CCRF-CEM, 72 h",25.5 nM
same,Therapeutic window,CEM; IC50 of normal blood cells/IC50 of CEM,7.89
same,growth of KG-1a in mice in vivo (in words),"[1]; KG-1a xenograft, intragastric 2 times a day, 14 days, dose-dependent effect",significantly inhibit the growth
same,Tumor weight,"[1]; trifluoroacetate 0.2 mg/kg intragastric 2 times a day, 14 days, listed as DV",0.42 g and 1.49 g and 0.06 g and 0.98 g and 0.2 g and 0.5 g
same,Tumor weight,"[1]; trifluoroacetate 0.4 mg/kg intragastric 2 times a day, 14 days",0 g
same,regression of KG-1a xenograft tumors,[1]; dose of 0.4 mg per kilogram of the body weight,complete regression
same,IC50,THP-1,16 nM
same,IC50,KG-1,49 nM
same,IC50,KG-1a,31 nM

# Source: US10238623B2, “C14-hydroxyl esterified amino acid derivative of triptolide, and preparation method and use thereof” (HANGZHOU WEBEN PHARMACEUTICALS INC, priority 2015, dated 2019)
